Laboratory results reported in US20100099561A1, “HETEROBICYCLIC ALKYLTHIO-BRIDGED ISOXAZOLINES” (E.I. DU PONT DE NEMOURS AND COMPANY, priority 2008, published 2010).

Columns and labels:
Format in all cases: in vivo
[1] = system: pigweed (Amaranthus retroflexus); experiment: Test A preemergence, pigweed; settings: 0 to 100 scale (0 no effect, 100 complete control)
Text: (§1) Seeds of barnyardgrass (Echinochloa crus-galli), large crabgrass (Digitaria sanguinalis), giant foxtail (Setaria faberi), morningglory (Ipomoea spp.), pigweed (Amaranthus retroflexus), velvetleaf (Abutilon theophrasti), wheat (Triticum aestivum), and corn (Zea mays) were planted into a blend of loam soil and sand and treated preemergence with a directed soil spray using test chemicals formulated in a non-phytotoxic solvent mixture which included a surfactant. At the same time these species were also treated with postemergence applications of test compounds formulated in the same manner. Plants ranged in height from two to ten cm and were in the one- to two-leaf stage for the postemergence treatment. Treated plants and untreated controls were maintained in a greenhouse for approximately ten days, after which time all treated plants were compared to untreated controls and visually evaluated for injury. Plant response ratings, summarized in Table A, are based on a 0 to 100 scale where 0 is no effect and 100 is complete control. A dash (-) response means no test result.

[2] = system: barnyardgrass (Echinochloa crus-galli); experiment: Test A preemergence, barnyardgrass; settings: 0 to 100 scale (0 no effect, 100 complete control)
Text: as §1

[3] = system: large crabgrass (Digitaria sanguinalis); experiment: Test A preemergence, large crabgrass; settings: 0 to 100 scale (0 no effect, 100 complete control)
Text: as §1

[4] = system: morningglory (Ipomoea spp.); experiment: Test A postemergence, morningglory; settings: 0 to 100 scale (0 no effect, 100 complete control)
Text: as §1

corn (Zea mays) [5] = experiment: Test A postemergence, corn; settings: 0 to 100 scale (0 no effect, 100 complete control)
Text: as §1

[6] = system: velvetleaf (Abutilon theophrasti); experiment: Test A postemergence, velvetleaf; settings: 0 to 100 scale (0 no effect, 100 complete control)
Text: as §1

[7] = system: morningglory (Ipomoea spp.); experiment: Test A preemergence, morningglory; settings: 0 to 100 scale (0 no effect, 100 complete control)
Text: as §1

[8] = system: large crabgrass (Digitaria sanguinalis); experiment: Test A postemergence, large crabgrass; settings: 0 to 100 scale (0 no effect, 100 complete control)
Text: as §1

[9] = system: barnyardgrass (Echinochloa crus-galli); experiment: Test A postemergence, barnyardgrass; settings: 0 to 100 scale (0 no effect, 100 complete control)
Text: as §1

[10] = system: umbrella sedge (Cyperus difformis); experiment: Test B flooded paddy test, umbrella sedge; settings: Flood, scale 0 to 100
Text: (§2) Plant species in the flooded paddy test consisted of rice (Oryza sativa), umbrella sedge (Cyperus difformis), ducksalad (Heteranthera limosa) and barnyardgrass (Echinochloa crus-galli) grown to the 2-leaf stage for testing. At time of treatment, test pots were flooded to 3 cm above the soil surface, treated by application of test compounds directly to the paddy water, and then maintained at that water depth for the duration of the test. Treated plants and controls were maintained in a greenhouse for 13 to 15 days, after which time all species were compared to controls and visually evaluated. Plant response ratings, summarized in Table B, are based on a scale of 0 to 100 where 0 is no effect and 100 is complete control. A dash (-) response means no test result.

[11] = system: wheat (Triticum aestivum); experiment: Test A preemergence, wheat; settings: 0 to 100 scale (0 no effect, 100 complete control)
Text: as §1

[12] = system: pigweed (Amaranthus retroflexus); experiment: Test A postemergence, pigweed; settings: 0 to 100 scale (0 no effect, 100 complete control)
Text: as §1

rice (Oryza sativa) = experiment: Test B flooded paddy test, rice; settings: Flood, scale 0 to 100
Text: as §2

[13] = system: giant foxtail (Setaria faberi); experiment: Test A postemergence, giant foxtail; settings: 0 to 100 scale (0 no effect, 100 complete control)
Text: as §1

[14] = system: wheat (Triticum aestivum); experiment: Test A postemergence, wheat; settings: 0 to 100 scale (0 no effect, 100 complete control)
Text: as §1

[15] = system: velvetleaf (Abutilon theophrasti); experiment: Test A preemergence, velvetleaf; settings: 0 to 100 scale (0 no effect, 100 complete control)
Text: as §1

[16] = system: barnyardgrass (Echinochloa crus-galli); experiment: Test B flooded paddy test, barnyardgrass; settings: Flood
Text: as §2

[17] = system: giant foxtail (Setaria faberi); experiment: Test A preemergence, giant foxtail; settings: 0 to 100 scale (0 no effect, 100 complete control)
Text: as §1

[18] = system: ducksalad (Heteranthera limosa); experiment: Test B flooded paddy test, ducksalad; settings: Flood, scale 0 to 100
Text: as §2

corn (Zea mays) [19] = experiment: Test A preemergence, corn; settings: 0 to 100 scale (0 no effect, 100 complete control)
Text: as §1

[20] = 250 g ai/ha, scale 0 to 100 (0 no effect, 100 complete control)

SMILES: CC1(C)CC([S+]([O-])Cc2c(C(F)(F)F)nc3n(c2=O)CCCO3)=NO1 (centres unmarked) [Compound 3]
- Plant response rating, Pigweed ([1]; 125 g ai/ha): 40
- Plant response rating, Pigweed ([1]; 500 g ai/ha): 60
- Plant response rating, Barnyardgrass ([2]; 125 g ai/ha): 30
- Plant response rating, Barnyardgrass ([2]; 500 g ai/ha): 60
- Plant response rating, Crabgrass, Large ([3]; 125 g ai/ha): 50
- Plant response rating, Crabgrass, Large ([3]; 500 g ai/ha): 70
- Plant response rating, Morningglory ([4]; 125 g ai/ha): 0
- Plant response rating, Morningglory ([4]; 500 g ai/ha): 0
- Plant response rating, Corn (corn (Zea mays) [5]; 125 g ai/ha): 0
- Plant response rating, Corn (corn (Zea mays) [5]; 500 g ai/ha): 0
- Plant response rating, Velvetleaf ([6]; 125 g ai/ha): 20
- Plant response rating, Velvetleaf ([6]; 500 g ai/ha): 50
- Plant response rating, Morningglory ([7]; 125 g ai/ha): 0
- Plant response rating, Morningglory ([7]; 500 g ai/ha): 0
- Plant response rating, Crabgrass, Large ([8]; 125 g ai/ha): 20
- Plant response rating, Crabgrass, Large ([8]; 500 g ai/ha): 50
- Plant response rating, Barnyardgrass ([9]; 125 g ai/ha): 0
- Plant response rating, Barnyardgrass ([9]; 500 g ai/ha): 50
- Plant response rating, Sedge, Umbrella ([10]; 62 g ai/ha): 0
- Plant response rating, Sedge, Umbrella ([10]; 250 g ai/ha): 0
- Plant response rating, Wheat ([11]; 125 g ai/ha): 0
- Plant response rating, Wheat ([11]; 500 g ai/ha): 0
- Plant response rating, Pigweed ([12]; 125 g ai/ha): 0
- Plant response rating, Pigweed ([12]; 500 g ai/ha): 30
- Plant response rating, Rice (rice (Oryza sativa); 62 g ai/ha): 0
- Plant response rating, Rice (rice (Oryza sativa); 250 g ai/ha): 0
- Plant response rating, Foxtail, Giant ([13]; 125 g ai/ha): 0
- Plant response rating, Foxtail, Giant ([13]; 500 g ai/ha): 50
- Plant response rating, Wheat ([14]; 125 g ai/ha): 0
- Plant response rating, Wheat ([14]; 500 g ai/ha): 0
- Plant response rating, Velvetleaf ([15]; 125 g ai/ha): 0
- Plant response rating, Velvetleaf ([15]; 500 g ai/ha): 0
- Plant response rating, Barnyardgrass ([16]; 62 g ai/ha, scale 0 to 100): 0
- Plant response rating, Barnyardgrass [16, 20]: 0
- Plant response rating, Foxtail, Giant ([17]; 125 g ai/ha): 40
- Plant response rating, Foxtail, Giant ([17]; 500 g ai/ha): 70
- Plant response rating, Ducksalad ([18]; 62 g ai/ha): 0
- Plant response rating, Ducksalad ([18]; 250 g ai/ha): 40
- Plant response rating, Corn (corn (Zea mays) [19]; 125 g ai/ha): 0
- Plant response rating, Corn (corn (Zea mays) [19]; 500 g ai/ha): 0

SMILES: CC1(C)CC(S(=O)(=O)Cc2c(C(F)(F)F)nc3n(c2=O)CCCO3)=NO1 [Compound 4]
- Plant response rating, Pigweed ([1]; 125 g ai/ha): 30
- Plant response rating, Pigweed ([1]; 500 g ai/ha): 100
- Plant response rating, Barnyardgrass ([2]; 125 g ai/ha): 70
- Plant response rating, Barnyardgrass ([2]; 500 g ai/ha): 100
- Plant response rating, Crabgrass, Large ([3]; 125 g ai/ha): 60
- Plant response rating, Crabgrass, Large ([3]; 500 g ai/ha): 100
- Plant response rating, Morningglory ([4]; 125 g ai/ha): 0
- Plant response rating, Morningglory ([4]; 500 g ai/ha): 50
- Plant response rating, Corn (corn (Zea mays) [5]; 125 g ai/ha): 0
- Plant response rating, Corn (corn (Zea mays) [5]; 500 g ai/ha): 50
- Plant response rating, Velvetleaf ([6]; 125 g ai/ha): 50
- Plant response rating, Velvetleaf ([6]; 500 g ai/ha): 70
- Plant response rating, Morningglory ([7]; 125 g ai/ha): 0
- Plant response rating, Morningglory ([7]; 500 g ai/ha): 70
- Plant response rating, Crabgrass, Large ([8]; 125 g ai/ha): 60
- Plant response rating, Crabgrass, Large ([8]; 500 g ai/ha): 80
- Plant response rating, Barnyardgrass ([9]; 125 g ai/ha): 70
- Plant response rating, Barnyardgrass ([9]; 500 g ai/ha): 80
- Plant response rating, Sedge, Umbrella ([10]; 31 g ai/ha): 0
- Plant response rating, Sedge, Umbrella ([10]; 62 g ai/ha): 0
- Plant response rating, Sedge, Umbrella ([10]; 125 g ai/ha): 0
- Plant response rating, Sedge, Umbrella ([10]; 250 g ai/ha): 0
- Plant response rating, Wheat ([11]; 125 g ai/ha): 0
- Plant response rating, Wheat ([11]; 500 g ai/ha): 40
- Plant response rating, Pigweed ([12]; 125 g ai/ha): 30
- Plant response rating, Pigweed ([12]; 500 g ai/ha): 60
- Plant response rating, Rice (rice (Oryza sativa); 31 g ai/ha): 0
- Plant response rating, Rice (rice (Oryza sativa); 62 g ai/ha): 0
- Plant response rating, Rice (rice (Oryza sativa); 125 g ai/ha): 0
- Plant response rating, Rice (rice (Oryza sativa); 250 g ai/ha): 0
- Plant response rating, Foxtail, Giant ([13]; 125 g ai/ha): 70
- Plant response rating, Foxtail, Giant ([13]; 500 g ai/ha): 80
- Plant response rating, Wheat ([14]; 125 g ai/ha): 0
- Plant response rating, Wheat ([14]; 500 g ai/ha): 10
- Plant response rating, Velvetleaf ([15]; 125 g ai/ha): 10
- Plant response rating, Velvetleaf ([15]; 500 g ai/ha): 90
- Plant response rating, Barnyardgrass ([16]; 31 g ai/ha, scale 0 to 100): 0
- Plant response rating, Barnyardgrass ([16]; 62 g ai/ha, scale 0 to 100): 0
- Plant response rating, Barnyardgrass ([16]; 125 g ai/ha, scale 0 to 100): 0
- Plant response rating, Barnyardgrass [16, 20]: 0
- Plant response rating, Foxtail, Giant ([17]; 125 g ai/ha): 90
- Plant response rating, Foxtail, Giant ([17]; 500 g ai/ha): 100
- Plant response rating, Ducksalad ([18]; 31 g ai/ha): 0
- Plant response rating, Ducksalad ([18]; 62 g ai/ha): 0
- Plant response rating, Ducksalad ([18]; 125 g ai/ha): 0
- Plant response rating, Ducksalad ([18]; 250 g ai/ha): 0
- Plant response rating, Corn (corn (Zea mays) [19]; 125 g ai/ha): 0
- Plant response rating, Corn (corn (Zea mays) [19]; 500 g ai/ha): 50

SMILES: CC1(C)CC(SCc2c(C(F)(F)F)nc3n(c2=O)CCC3)=NO1 [Compound 9, 3-[[(4,5-dihydro-5,5-dimethyl-3-isoxazolyl)thio]methyl]-7,8-dihydro-2-(trifluoromethyl)pyrrolo[1,2-α]pyrimidin-4(6H)-one]
- Plant response rating, Pigweed ([1]; 1000 g ai/ha): 0
- Plant response rating, Barnyardgrass ([2]; 1000 g ai/ha): 0
- Plant response rating, Crabgrass, Large ([3]; 1000 g ai/ha): 0
- Plant response rating, Morningglory ([4]; 1000 g ai/ha): 30
- Plant response rating, Corn (corn (Zea mays) [5]; 1000 g ai/ha): 0
- Plant response rating, Velvetleaf ([6]; 1000 g ai/ha): 10
- Plant response rating, Morningglory ([7]; 1000 g ai/ha): 0
- Plant response rating, Crabgrass, Large ([8]; 1000 g ai/ha): 0
- Plant response rating, Barnyardgrass ([9]; 1000 g ai/ha): 0
- Plant response rating, Wheat ([11]; 1000 g ai/ha): 0
- Plant response rating, Pigweed ([12]; 1000 g ai/ha): 10
- Plant response rating, Foxtail, Giant ([13]; 1000 g ai/ha): 0
- Plant response rating, Wheat ([14]; 1000 g ai/ha): 0
- Plant response rating, Velvetleaf ([15]; 1000 g ai/ha): 0
- Plant response rating, Foxtail, Giant ([17]; 1000 g ai/ha): 0
- Plant response rating, Corn (corn (Zea mays) [19]; 1000 g ai/ha): 0
